Data taken from US12084472B2 (Ardelyx, Inc., priority 2015, dated 2024).

The molecules below were run against T1, human TGR5 (Homo sapiens, UniProt Q8TDU6) (assay: Cell-based TGR5 assay (cAMP generation, HTRF)). Conditions: HEK293 cells stably transfected with human TGR5; cAMP by HTRF; 30 minutes at 37° C.; read-out: pEC50 Human TGR5 (converted).
T1 construct: expressed in transfected cells; host or cells: HEK293
T1 sequence (Q8TDU6 1-330): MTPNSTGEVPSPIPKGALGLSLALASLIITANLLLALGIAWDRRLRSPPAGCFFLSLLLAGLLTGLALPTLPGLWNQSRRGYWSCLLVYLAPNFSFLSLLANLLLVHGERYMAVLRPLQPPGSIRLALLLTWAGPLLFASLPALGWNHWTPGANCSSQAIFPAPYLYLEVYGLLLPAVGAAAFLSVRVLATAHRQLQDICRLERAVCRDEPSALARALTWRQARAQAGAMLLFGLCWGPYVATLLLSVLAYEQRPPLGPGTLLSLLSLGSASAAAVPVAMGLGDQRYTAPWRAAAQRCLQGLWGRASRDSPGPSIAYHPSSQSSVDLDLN
How it was run: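 First, compounds in 3-fold serial dilution were placed in HBSS with 10 mM HEPES pH 7.4 and 0.5 mM IBMX. Next, human TGR5-expressing HEK293 cells were added and incubated 30 min at 37° C. Finally, cAMP was detected by HTRF and pEC50 derived by logistic fitting.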
`O=C(CCCSc1ccc(Cl)c(COC2(c3cnccc3-c3ccccc3OC3CC3)CC2)c1)N(CCOCCO)C[C@H](O)[C@@H](O)[C@H](O)[C@H](O)CO` [Compound I-683, 4-{[4-chloro-3-({1-[4-(2-cyclopropoxyphenyl)pyridin-3-yl]cyclopropoxy}methyl)phenyl]sulfanyl}-N-[2-(2-hydroxyethoxy)ethyl]-N-[(2S,3R,4R,5R)-2,3,4,5,6-pentahydroxyhexyl]butanamide] showed an EC50 of 126 to 1000 nM. `CN(CCCCSc1ccc(Cl)c(COC2(c3cnccc3-c3ccccc3OC3CC3)CC2)c1)C(=O)[C@@H](O)[C@@H](O)[C@H](O)[C@@H](O)CO` [Compound I-510, (2S,3S,4R,5S)-N-(4-{[4-chloro-3-({11-[4-(2-cyclopropoxyphenyl)pyridin-3-yl]cyclopropoxy}methyl)phenyl]sulfanyl}butyl)-2,3,4,5,6-pentahydroxy-N-methylhexanamide] was tested, and the EC50 was < 100 nM. For `C=C(CCCNC(=O)[C@@H](O)[C@@H](O)[C@H](O)[C@@H](O)CO)c1ccc(Cl)c(CNC2(c3cnccc3-c3ccccc3OC3CC3)CC2)c1` [Compound I-381, (2S,3S,4R,5S)-N-(4-[4-chloro-3-[([1-[4-(2-cyclopropoxyphenyl)pyridin-3-yl]cyclopropyl]amino)methyl]phenyl]pent-4-en-1-yl)-2,3,4,5,6-pentahydroxyhexanamide], the EC50 was < 100 nM. With `CC(CCCN(C(=O)[C@@H](O)[C@@H](O)[C@H](O)[C@@H](O)CO)C1CCOCC1)c1ccc(Cl)c(CNC2(c3cnccc3-c3ccccc3OC3CC3)CC2)c1` (stereo partly drawn) [Compound I-285, (2S,3S,4R,5S)-N-(4-{4-chloro-3-[({1-[4-(2-cyclopropoxyphenyl)pyridin-3-yl]cyclopropyl}amino)methyl]phenyl}pentyl)-2,3,4,5,6-pentahydroxy-N-(oxan-4-yl)hexanamide] the EC50 was 126 to 1000 nM. Molecule `O=C(NCCCC[C@H](NS(=O)(=O)c1ccc(Cl)c(COC2(c3cnccc3-c3ccccc3OC3CC3)CC2)c1)C(=O)O)NC[C@H](O)[C@@H](O)[C@H](O)[C@H](O)CO` [Compound I-483, (2S)-2-[4-chloro-3-({1-[4-(2-cyclopropoxyphenyl)pyridin-3-yl]cyclopropoxy}methyl)benzenesulfonamido]-6-({[(2S,3R,4R,5R)-2,3,4,5,6-pentahydroxyhexyl]carbamoyl}amino)hexanoic acid] has an EC50 of 126 to 1000 nM. `Cc1ccc(S(=O)(=O)N(C)CCCCNC(=O)NC[C@H](O)[C@@H](O)[C@H](O)[C@H](O)CO)cc1CNC1(c2cnccc2-c2ccccc2OC2CC2)CC1` [Compound I-477, 1-(4-{N-methyl3-[({1-[4-(2-cyclopropoxyphenyl)pyridin-3-yl]cyclopropyl}amino)methyl]-4-methylbenzenesulfonamido}butyl)-3-[(2S,3R,4R,5R)-2,3,4,5,6-pentahydroxyhexyl]urea] was tested, and the EC50 was < 100 nM. For `CS(=O)(=O)NCCN(CCCSc1ccc(Cl)c(COC2(c3cnccc3-c3ccccc3OC3CC3)CC2)c1)C(=O)[C@@H](O)[C@@H](O)[C@H](O)[C@@H](O)CO` [Compound I-593, (2S,3S,4R,5S)-N-(3-{[4-chloro-3-({1-[4-(2-cyclopropoxyphenyl)pyridin-3-yl]cyclopropoxy}methyl)phenyl]sulfanyl}propyl)-2,3,4,5,6-pentahydroxy-N-(2-methanesulfonamidoethyl) hexanamide], the EC50 was < 100 nM. With `O=C(NCCCCc1cc(Cl)c(COC2(c3cnccc3-c3ccccc3OC3CC3)CC2)cc1Cl)[C@@H](O)[C@@H](O)[C@H](O)[C@@H](O)CN1CCOCC1` (stereo in doubt) [Compound I-179, (2S,3S,4R,5S)-N-{4-[2,5-dichloro-4-({1-[4-(2-cyclopropoxyphenyl)pyridin-3-yl]cyclopropoxy}methyl)phenyl]butyl}-2,3,4,5-tetrahydroxy-6-(morpholin-4-yl)hexanamide] the EC50 was < 100 nM. In the case of `CS(=O)(=O)NCCCCN(CCCSc1ccc(Cl)c(COC2(c3cnccc3-c3ccccc3OC3CC3)CC2)c1)C(=O)[C@@H](O)[C@@H](O)[C@H](O)[C@@H](O)CO` [Compound I-580, (2S,3S,4R,5S)-N-(3-{[4-chloro-3-({1-[4-(2-cyclopropoxyphenyl)pyridin-3-yl]cyclopropoxy}methyl)phenyl]sulfanyl}propyl)-2,3,4,5,6-pentahydroxy-N-(4-methanesulfonamidobutyl) hexanamide], the EC50 was 126 to 1000 nM. In the case of `CC(CCCC(=O)N(CCS(=O)(=O)N1CCOCC1)C[C@H](O)[C@@H](O)[C@H](O)[C@H](O)CO)c1ccc(Cl)c(CNC2(c3cnccc3-c3ccccc3OC3CC3)CC2)c1` (stereo partly drawn) [Compound I-262, 5-(4-chloro-3-(((1-(4-(2-cyclopropoxyphenyl)pyridin-3-yl)cyclopropyl)amino)methyl)phenyl)-N-(2-(morpholinosulfonyl)ethyl)-N-((2S,3R,4R,5R)-2,3,4,5,6-pentahydroxyhexyl)hexanamide], the EC50 was < 100 nM. With `C[C@H](CCCCC(=O)N(C)C[C@H](O)[C@@H](O)[C@H](O)[C@H](O)CO)c1ccc(Cl)c(CNC2(c3cnccc3-c3ccccc3OC3CC3)CC2)c1` (single isomer, unassigned) [Compound I-329] the EC50 was < 100 nM. In the case of `NC(=O)CN(CCCCCSc1ccc(Cl)c(COC2(c3cnccc3-c3ccccc3OC3CC3)CC2)c1)C(=O)[C@@H](O)[C@@H](O)[C@H](O)[C@@H](O)CO` [Compound I-609, (2S,3S,4R,5S)-N-(carbamoylmethyl)-N-(5-{[4-chloro-3-({1-[4-(2-cyclopropoxyphenyl)pyridin-3-yl]cyclopropoxy}methyl)phenyl]sulfanyl}pentyl)-2,3,4,5,6-pentahydroxyhexanamide], the EC50 was < 100 nM. In the case of `CCN(CCCCc1cc(Cl)c(COC2(c3cnccc3-c3ccccc3OC3CC3)CC2)cc1Cl)C(=O)[C@@H](O)[C@@H](O)[C@H](O)[C@@H](O)CO` (stereo in doubt) [Compound I-209, (2S,3S,4R,5S)-N-{4-[2,5-dichloro-4-({1-[4-(2-cyclopropoxyphenyl)pyridin-3-yl]cyclopropoxy}methyl)phenyl]butyl}-N-ethyl-2,3,4,5,6-pentahydroxyhexanamide], the EC50 was < 100 nM. With `COCCN(C[C@@H](O)[C@H](O)[C@@H](O)[C@@H](O)CO)C(=O)CCCC(C)c1ccc(Cl)c(CNC2(c3cnccc3-c3ccccc3OC3CC3)CC2)c1` (stereo partly drawn) [Compound I-333, 5-{4-chloro-3-[({1-[4-(2-cyclopropoxyphenyl)pyridin-3-yl]cyclopropyl}amino)methyl]phenyl}-N-(2-methoxyethyl)-N-[(2R,3S,4S,5S)-2,3,4,5,6-pentahydroxyhexyl]hexanamide] the EC50 was < 100 nM. `CCc1ccc(C(C)CCCC(=O)NC[C@H](O)[C@@H](O)[C@H](O)[C@H](O)CO)cc1CNC1(c2cnccc2-c2ccccc2OC2CC2)CC1` (stereo partly drawn) [Compound I-349, 5-{3-[({1-[4-(2-cyclopropoxyphenyl)pyridin-3-yl]cyclopropyl}amino)methyl]-4-ethylphenyl}-N-[(2S,3R,4R,5R)-2,3,4,5,6-pentahydroxyhexyl]hexanamide] was tested, and the EC50 was < 100 nM. With `COc1ccccc1-c1ccncc1C1(OCc2cc(Cl)ccc2Cl)CC1` [Compound I-45, 3-[1-[(2,5-dichlorophenyl)methoxy]cyclopropyl]-4-(2-methoxyphenyl)pyridine] the EC50 was < 100 nM. Molecule `CN1C[C@@H]2C[C@H]1CN2S(=O)(=O)c1ccc(Cl)c(COC2(c3cnccc3-c3ccccc3OC3CC3)CC2)c1` [Compound I-777, (1S,4S)-2-((4-chloro-3-((1-(4-(2-cyclopropoxyphenyl)pyridin-3-yl)cyclopropoxy)methyl)phenyl)sulfonyl)-5-methyl-2,5-diazabicyclo[2.2.1]heptane] has an EC50 of 126 to 1000 nM. `CC(=O)N1C[C@@H]2C[C@H]1CN2S(=O)(=O)c1ccc(Cl)c(COC2(c3cnccc3-c3ccccc3OC3CC3)CC2)c1` [Compound I-780, 1-((1S,4S)-5-((4-chloro-3-((1-(4-(2-cyclopropoxyphenyl)pyridin-3-yl)cyclopropoxy)methyl)phenyl)sulfonyl)-2,5-diazabicyclo[2.2.1]heptan-2-yl)ethan-1-one] gave an EC50 of 126 to 1000 nM. In the case of `O=C(NCCCCCS(=O)(=O)c1ccc(Cl)c(COC2(c3cnccc3-c3ccccc3OC3CC3)CC2)c1)[C@@H](O)[C@@H](O)[C@H](O)[C@@H](O)CO` [Compound I-608, (2S,3S,4R,5S)-N-{5-[4-chloro-3-({1-[4-(2-cyclopropoxyphenyl)pyridin-3-yl]cyclopropoxy}methyl)benzenesulfonyl]pentyl}-2,3,4,5,6-pentahydroxyhexanamide], the EC50 was < 100 nM. In the case of `CN(CCCCSc1ccc(Cl)c(CNC2(c3cnccc3-c3ccccc3OC3CC3)CC2)c1)C(=O)[C@@H](O)[C@@H](O)[C@H](O)[C@@H](O)CO` [Compound I-506, (2S,3S,4R,5S)-N-[4-({4-chloro-3-[({1-[4-(2-cyclopropoxyphenyl)pyridin-3-yl]cyclopropyl}amino)methyl]phenyl}sulfanyl)butyl]-2,3,4,5,6-pentahydroxy-N-methylhexanamide], the EC50 was < 100 nM. Work on `O=C(CC1CCN(S(=O)(=O)c2ccc(Cl)c(COC3(c4cnccc4-c4ccccc4OC4CC4)CC3)c2)CC1)NC[C@H](O)[C@@H](O)[C@H](O)[C@H](O)CO` [Compound I-441, 2-{1-[4-chloro-3-({1-[4-(2-cyclopropoxyphenyl)pyridin-3-yl]cyclopropoxy}methyl)benzenesulfonyl]piperidin-4-yl}-N-[(2S,3R,4R,5R)-2,3,4,5,6-pentahydroxyhexyl]acetamide] yielded an EC50 of 126 to 1000 nM.
